# Reference: PubChem BioAssay (NCI)
#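 Values below derive from 48-hour exposures of cells grown in 96-well plates, with endpoints linearly interpolated between the two concentrations bracketing the appropriate inhibition level. GI50 marks 50% less growth. TGI is the concentration that stops growth completely.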
# How the values were obtained:
# Test in all cases: inhibition of tumour cell growth, NCI panel, 48 h
# BT-549 breast = tested on: BT-549 breast
# HCC-2998 colon = tested on: HCC-2998 colon
# HT29 colon = tested on: HT29 colon
# NCI-H226 lung = tested on: NCI-H226 lung
# NCI-H460 lung = tested on: NCI-H460 lung
# SK-OV-3 ovarian = tested on: SK-OV-3 ovarian
# SNB-75 CNS = tested on: SNB-75 CNS
# UACC-257 melanoma = tested on: UACC-257 melanoma
# UO-31 renal = tested on: UO-31 renal
# RXF 393 renal = tested on: RXF 393 renal
SMILES,GI50 (BT-549 breast) [µM],TGI (BT-549 breast) [µM],GI50 (HCC-2998 colon) [µM],TGI (HCC-2998 colon) [µM],GI50 (HT29 colon) [µM],TGI (HT29 colon) [µM],GI50 (NCI-H226 lung) [µM],TGI (NCI-H226 lung) [µM],GI50 (NCI-H460 lung) [µM],TGI (NCI-H460 lung) [µM],GI50 (SK-OV-3 ovarian) [µM],TGI (SK-OV-3 ovarian) [µM],GI50 (SNB-75 CNS) [µM],TGI (SNB-75 CNS) [µM],GI50 (UACC-257 melanoma) [µM],TGI (UACC-257 melanoma) [µM],GI50 (UO-31 renal) [µM],TGI (UO-31 renal) [µM],TGI (RXF 393 renal) [µM],GI50 (RXF 393 renal) [µM]
COc1ccc2nc(-c3ccccc3)cc(Nc3ccc(/C(C)=N/O)cc3)c2c1,2.07,4.76,2.19,4.94,2.7,> 100,1.95,4.39,2.8,> 23.3,2.15,5.22,3.54,> 100,2.88,7.78,41.3,> 100,,
N/C(=N\OC(=O)NC(Cl)=C(Cl)Cl)c1cc(C(F)(F)F)cc(C(F)(F)F)c1,,41.2,,25.8,,34.4,,55.9,,36.8,,84.4,,,,31.1,,33.9,,
COc1cc(C2[C@H]3C(=O)N(c4ccc(Cc5ccc(N6C(=O)[C@@H]7ON(c8ccccc8)C(c8cc(OC)c(OC)c(OC)c8)[C@@H]7C6=O)cc5)cc4)C(=O)[C@H]3ON2c2ccccc2)cc(OC)c1OC (some centres not stated),,,,> 100,,> 100,,> 100,,> 100,,> 100,,> 100,,> 100,,> 100,> 100,
O=C1c2cnccc2Cc2cccc3c2N1c1ccccc1S3,,,,41,,74.8,,,,,,,,48.5,,59,,,65.3,
C(=C1\CCC/C(=C/c2ccccc2)C1=NNc1ccccc1)/c1ccccc1,,,,> 100,,> 100,,,,> 100,,> 100,,> 100,,> 100,,> 100,> 100,
COc1ccc(-c2cc(-c3ccccc3)c(C#N)c(=O)[nH]2)cc1,,,,> 100,,> 100,,> 100,,> 100,,> 100,,> 100,,> 100,,> 100,> 100,
CC1(C)CCc2cc3c(cc2O1)OC(C)(C)C1c2c(ccc4c2CCC(C)(C)O4)OC31 (configuration not stated),,,,,,> 100,,> 100,,> 100,,> 100,,,,,,> 100,,
Cn1cc2ccccc2c1-c1nc(F)nc(Oc2ccc3c(c2)CC[C@@H]2C3CC[C@]3(C)C(O)CCC23)n1 (some centres not stated),,,,36.4,,,,> 100,,,,36.3,,28.6,,36.3,,63.6,72.3,
CSc1nc2c(nc(N)n2C2OCC(O)C(O)C2O)c(=O)[nH]1 (configuration not stated),,,,> 100,,> 100,,> 100,,> 100,,> 100,,> 100,,> 100,,> 100,> 100,
O=C1c2c(c3c4ccccc4n4c3c3c2c2ccccc2n3C/C=C\C4)C(=O)N1Cc1ccccc1,,,,> 100,,> 100,,> 100,,> 100,,> 100,,68.9,,> 100,,> 100,> 100,
Cn1c(=O)c(C(c2ccccc2)c2c(O)c3ccccc3n(C)c2=O)c(O)c2ccccc21,,,,> 100,,> 100,,65.9,,> 100,,> 100,,> 100,,> 100,,> 100,> 100,
CC(C)O/C=C1\C(=O)C2(SCCS2)[C@H]2CCCC[C@@H]12,,,,> 100,,,,> 100,,> 100,,> 100,,> 100,,> 100,,> 100,57.8,
CC1=C(C(=O)Nc2ccccc2C)C(c2ccc(N(C)C)cc2)C(C(=O)Nc2ccccc2C)=C(C)N1,,,,> 100,,> 100,,> 100,,> 100,,> 100,,,,> 100,,> 100,> 100,
COc1ccc2oc(-c3ccncc3)cc(=O)c2c1,,,,> 100,,> 100,,> 100,,> 100,,,,> 100,,> 100,,> 100,> 100,
CCCNC(=O)c1cc2ccccc2cc1C(=O)OC,,,,> 100,,> 100,,> 100,,> 100,,> 100,,75.8,,> 100,,> 100,,
CCOC(=O)CNC(SC)=C(C#N)C#N,,,,> 100,,> 100,,> 100,,> 100,,> 100,,> 100,,> 100,,> 100,> 100,
CCOC(=O)c1c(-c2[nH]c(C(=O)OCc3ccccc3)c(C)c2C(=O)OCC)[nH]c(C(=O)OCc2ccccc2)c1C,,,,> 100,,> 100,,> 100,,> 100,,> 100,,77.2,,,,> 100,86.2,

SMILES,GI50 (BT-549 breast) [µM],TGI (BT-549 breast) [µM],GI50 (HCC-2998 colon) [µM],TGI (HCC-2998 colon) [µM],GI50 (HT29 colon) [µM],TGI (HT29 colon) [µM],GI50 (NCI-H226 lung) [µM],TGI (NCI-H226 lung) [µM],GI50 (NCI-H460 lung) [µM],TGI (NCI-H460 lung) [µM],GI50 (SK-OV-3 ovarian) [µM],TGI (SK-OV-3 ovarian) [µM],GI50 (SNB-75 CNS) [µM],TGI (SNB-75 CNS) [µM],GI50 (UACC-257 melanoma) [µM],TGI (UACC-257 melanoma) [µM],GI50 (UO-31 renal) [µM],TGI (UO-31 renal) [µM],TGI (RXF 393 renal) [µM],GI50 (RXF 393 renal) [µM]
Cc1c(N2C(=O)/C(=C\c3ccc(O)cc3)N=C2c2ccccc2)c(=O)n(-c2ccccc2)n1C,,,> 100,> 100,> 100,> 100,> 100,> 100,> 100,> 100,> 100,> 100,> 100,> 100,> 100,> 100,> 100,> 100,> 100,> 100
OCCc1cnco1,,,,> 100,,> 100,,> 100,,> 100,,> 100,,> 100,,,,,> 100,
COc1ccc(S(=O)(=O)O)cc1NS(=O)(=O)c1ccc(C)cc1,,> 100,,,,> 100,,> 100,,> 100,,> 100,,> 100,,> 100,,> 100,,
O=C1C2Cc3ccccc3CN2C(=O)N1CN1CCN(CN2C(=O)C3Cc4ccccc4CN3C2=O)CC1 (configuration not stated),,,,> 100,,> 100,,> 100,,> 100,,> 100,,> 100,,> 100,,> 100,> 100,
COc1cc(/C=C/C(=O)c2c(C)n([O-])c3cc(C)c(C)cc3[n+]2=O)cc(OC)c1OC,11.8,30.8,14.2,32.6,18.6,34.7,21.6,55.5,10.9,26.3,32.4,91.9,19.8,41.3,16.7,48.8,15.4,32.3,,
Cc1cn(C2C=CC(=O)C(C)O2)c(=O)[nH]c1=O (configuration not stated),,,,,,33.4,,42.1,,35.5,,> 100,,29.1,,27.8,,27.7,,
COc1cc2c(c3oc(-c4ccc5c(c4)OCO5)c(O)c(=O)c13)CCC(C)(C)O2,,,,> 100,,> 100,,> 100,,,,> 100,,> 100,,,,> 100,,
COc1cc2ccc(CC#N)cc2cc1OC,,,,,,> 100,,> 100,,> 100,,> 100,,,,> 100,,> 100,> 100,
COc1cc(NCC(C#N)C#N)ccc1N=Nc1ccc([N+](=O)[O-])cc1,,,,> 100,,> 100,,> 100,,> 100,,> 100,,> 100,,> 100,,> 100,> 100,
CC1SC2=NC3=C(c4ccccc4C3=O)C(c3ccc(Br)cc3)N2C1=O (configuration not stated),,,,> 100,,> 100,,> 100,,> 100,,> 100,,96.9,,> 100,,> 100,,
Cc1cc2nc3ccc(N=Nc4ccc(N(C)C)cc4)cc3n(-c3ccccc3)c-2cc1=N,,,0.0431,1.6,0.0497,1.15,,,0.0146,0.0527,0.0305,0.187,0.05,1.25,,,0.0333,0.82,,
COc1ccc(CNc2nc3ccccc3nc2-c2cccs2)cc1OC,,,,> 100,,> 100,,> 100,,> 100,,,,,,> 100,,> 100,> 100,
COc1cc(C/C=C/c2ccccc2)c(OC)cc1O,,58.4,,37.4,,37.8,,79.3,,39.7,,,,77.6,,> 100,,31.4,,
C#CCOCn1cnc2ncnc(Cl)c21,,,,> 100,,> 100,,> 100,,> 100,,> 100,,> 100,,> 100,,> 100,,
CCC[CH2][Sn]1([CH2]CCC)[O]C(=O)C[S]1,,,1.83,3.97,2.83,8.2,1.93,3.77,4.09,16.9,4.63,14,1.35,3.27,1.4,3.27,2.48,7.29,1.88,0.573
COC1=NN2C(OC)(c3ccccc3)c3c(-c4ccccc4)sc(-c4ccccc4)c3C2(c2ccccc2)S1 (configuration not stated),,,,> 100,,> 100,,,,> 100,,> 100,,> 100,,> 100,,> 100,,
